Experimental data reported in article PMC12935787, “Clinical pharmacokinetics and pharmacometabolomics of Andrographis paniculata capsules: Bridging drug disposition and metabolic response to precision medicine” (Naunyn-Schmiedeberg's Archives of Pharmacology, 2025).
Where two headings read alike, the source gives them in different places.

Test: Clinical pharmacokinetics, plasma LC-MS/MS after single oral dose of AP capsules
Type: in vivo, human (healthy volunteers)
Conditions: human, plasma; for concentration at 0 h / concentration at 0.5 h / concentration at 1 h / concentration at 1.5 h / concentration at 2 h / concentration at 2.5 h / concentration at 3 h / concentration at 3.5 h / concentration at 4 h / concentration at 5 h / concentration at 6 h / concentration at 8 h / concentration at 10 h / concentration at 12 h / concentration at 24 h: oral, 2000 mg, 2000 mg AP capsules; for concentration at 0.5 h: 0.50 h; for concentration at 1.5 h: 1.50 h; for concentration at 2.5 h: 2.50 h; for concentration at 3.5 h: 3.50 h
Experimental: The protocol was published (Tee et al. [2022]).
Seven calibrators ranging from 1, 2, 5,10, 20, 50, and 100 ng mL^−1 were prepared. Frozen plasma was thawed, vortexed-mixes, and processed via protein precipitation: 50 µL plasma plus 100 µL 0.01% ammonia in methanol were vortexed (20 s), centrifuged (14800 rpm, 5 min) and […] supernatant was transferred to 2 mL vials with inserts. LC–MS/MS injection volume: 10 µL. The separation used a Phenomenex Gemini-NX C18 column (150 × 2.1 mm, 5 μm) with 0.01% ammonia (A) and acetonitrile/methanol (1:1, B) as mobile phases (0.30 mL min^-1). The gradient program: 40% B (0 min), linear increase to 95% B (3 min), hold to 5 min, sharp decrease to 10% B (5.01 min), hold to 7 min, return to 40% B (7.01 min), and re-equilibration to 10 min. Mass detection employed an LCMS-8060NX triple quadrupole with heated ESI in negative mode, monitoring specific MRM transitions: andrographolide (349.3 → 331.2/287.1), 14-deoxyandrographolide (331.2 → 108.0/301.1), and neoandrographolide (479.1 → 317.4/161.1).
Pharmacokinetic parameters were determined from plasma samples (5 subjects, 15 time points) analyzed via LC–MS/MS (Shimadzu 8060NX). […] Specific MRM transitions for andrographolide, 14-deoxyandrographolide, and neoandrographolide in plasma samples of subjects are illustrated in Figure S3. […] The dose-dependent concentration–time curves, pharmacokinetics profiles (Fig. 2a, b and c) and comprehensive individual PK data (Table S4) provide a foundation for developing personalized AP dosing regimens, supporting its precision medicine potential.

[1] = S1, read-out: Plasma concentration
[2] = S2, read-out: Plasma concentration
[3] = S3, read-out: Plasma concentration
[4] = S4, read-out: Plasma concentration
[5] = S5, read-out: Plasma concentration
[6] = mean n=5, read-out: Mean concentration
[7] = 2000 mg AP capsules oral, fasting, n=5

In the case of `C=C1CC[C@@H]2[C@](C)(CO)[C@H](O)CC[C@@]2(C)[C@@H]1CCC1=CCOC1=O` [14-deoxyandrographolide], the concentration at 0 h [1] is reported as 0 ng/mL, the concentration at 0.5 h [1] is reported as 4.67 ng/mL and the concentration at 1 h [1] is reported as 2.88 ng/mL. It also gave a concentration at 1.5 h [1] of 7.71 ng/mL, a concentration at 2 h [1] of 5.18 ng/mL and a concentration at 2.5 h [1] of 3.32 ng/mL. For the same compound, the concentration at 3 h [1] was 6.06 ng/mL, the concentration at 3.5 h [1] was 3.78 ng/mL and the concentration at 4 h [1] was 0 ng/mL. For the same compound, the concentration at 5 h [1] was 0 ng/mL, the concentration at 6 h [1] was 0 ng/mL and the concentration at 8 h [1] was 0 ng/mL. For the same compound, the concentration at 10 h [1] was 0 ng/mL, the concentration at 12 h [1] was 0 ng/mL and the concentration at 24 h [1] was 0 ng/mL. For the same compound, the concentration at 0 h [2] was 0 ng/mL, the concentration at 0.5 h [2] was 0 ng/mL and the concentration at 1 h [2] was 4.36 ng/mL. For the same compound, the concentration at 1.5 h [2] was 4.51 ng/mL, the concentration at 2 h [2] was 3.4 ng/mL and the concentration at 2.5 h [2] was 2.73 ng/mL. The concentration at 3 h [2] was 4.33 ng/mL, the concentration at 3.5 h [2] was 0 ng/mL and the concentration at 4 h [2] was 0 ng/mL. It also gave a concentration at 5 h [2] of 0 ng/mL, a concentration at 6 h [2] of 0 ng/mL and a concentration at 8 h [2] of 0 ng/mL. It also gave a concentration at 10 h [2] of 0 ng/mL, a concentration at 12 h [2] of 0 ng/mL and a concentration at 24 h [2] of 0 ng/mL. The concentration at 0 h [3] was 0 ng/mL, the concentration at 0.5 h [3] was 23.4 ng/mL and the concentration at 1 h [3] was 10.1 ng/mL. The concentration at 1.5 h [3] was 6.33 ng/mL, the concentration at 2 h [3] was 3.06 ng/mL and the concentration at 2.5 h [3] was 2.52 ng/mL. For the same compound, the concentration at 3 h [3] was 1.77 ng/mL, the concentration at 3.5 h [3] was 0 ng/mL and the concentration at 4 h [3] was 0 ng/mL. The concentration at 5 h [3] was 2.59 ng/mL, the concentration at 6 h [3] was 0 ng/mL and the concentration at 8 h [3] was 0 ng/mL. The concentration at 10 h [3] was 0 ng/mL, the concentration at 12 h [3] was 0 ng/mL and the concentration at 24 h [3] was 0 ng/mL. The concentration at 0 h [4] was 0 ng/mL, the concentration at 0.5 h [4] was 1.49 ng/mL and the concentration at 1 h [4] was 10 ng/mL. The concentration at 1.5 h [4] was 13.2 ng/mL, the concentration at 2 h [4] was 4.7 ng/mL and the concentration at 2.5 h [4] was 5.46 ng/mL. It also gave a concentration at 3 h [4] of 1.92 ng/mL, a concentration at 3.5 h [4] of 2.29 ng/mL and a concentration at 4 h [4] of 1.69 ng/mL. The concentration at 5 h [4] was 1.8 ng/mL, the concentration at 6 h [4] was 2.01 ng/mL and the concentration at 8 h [4] was 2.47 ng/mL. For the same compound, the concentration at 10 h [4] was 0 ng/mL, the concentration at 12 h [4] was 0 ng/mL and the concentration at 24 h [4] was 0 ng/mL. It also gave a concentration at 0 h [5] of 0 ng/mL, a concentration at 0.5 h [5] of 3.04 ng/mL and a concentration at 1 h [5] of 2.29 ng/mL. It also gave a concentration at 1.5 h [5] of 3.39 ng/mL, a concentration at 2 h [5] of 4.99 ng/mL and a concentration at 2.5 h [5] of 3.66 ng/mL. It also gave a concentration at 3 h [5] of 3.28 ng/mL, a concentration at 3.5 h [5] of 2.09 ng/mL and a concentration at 4 h [5] of 1.36 ng/mL. The concentration at 5 h [5] was 2.4 ng/mL, the concentration at 6 h [5] was 1.7 ng/mL and the concentration at 8 h [5] was 0 ng/mL. The concentration at 10 h [5] was 0 ng/mL, the concentration at 12 h [5] was 0 ng/mL and the concentration at 24 h [5] was 0 ng/mL. The concentration at 0 h [6] was 0 ng/mL, the concentration at 0.5 h [6] was 6.52 ng/mL and the concentration at 1 h [6] was 5.94 ng/mL. For the same compound, the concentration at 1.5 h [6] was 7.02 ng/mL, the concentration at 2 h [6] was 4.27 ng/mL and the concentration at 2.5 h [6] was 3.54 ng/mL. It also gave a concentration at 3 h [6] of 3.47 ng/mL, a concentration at 3.5 h [6] of 1.63 ng/mL and a concentration at 4 h [6] of 0.61 ng/mL. The concentration at 5 h [6] was 1.36 ng/mL, the concentration at 6 h [6] was 0.74 ng/mL and the concentration at 8 h [6] was 0.49 ng/mL. It also gave a concentration at 10 h [6] of 0 ng/mL, a concentration at 12 h [6] of 0 ng/mL and a concentration at 24 h [6] of 0 ng/mL. It also gave an AUC(0-inf) [7] of 21.2 ng·h/mL, an AUC(0-t) [7] of 19.6 ng·h/mL and a Cmax [7] of 7.02 ng/mL. For the same compound, the half-life [7] was 2.18 h.
